Data reported in patent publication US20260325533A1, “CDK INHIBITOR COMPOUNDS” (ALEKSIA THERAPEUTICS, INC., priority 2023, published 2026).
Read-outs that look alike come from different tables or passages of the source.

Key:
Assay type in all cases: biochemical
[1] = molecular target: CDK2/CCNE1 (Homo sapiens, UniProt P24941); assay: CDK2 homogeneous time-resolved fluorescence (HTRF) kinase assay; details: CDK2/CCNE
Summary of the method: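 3 nM CDK2/CCNE1 was preincubated with compound for 20 min at 23 °C in HEPES buffer (pH not stated), then reacted 60 min with 1 mM ATP and 50 nM ULight-4E-BP1 (Thr37/46) peptide. After EDTA stop, Eu-anti-phospho-4E-BP1 antibody (2 nM) was added for 60 min and TR-FRET read at 665 nm.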

[2] = molecular target: CDK1/CCNB1 (Homo sapiens, UniProt P06493); assay: CDK1 homogeneous time-resolved fluorescence (HTRF) kinase assay; details: CDK1/CCNB
Chain of CDK1/CCNB1 (P06493 whole entry): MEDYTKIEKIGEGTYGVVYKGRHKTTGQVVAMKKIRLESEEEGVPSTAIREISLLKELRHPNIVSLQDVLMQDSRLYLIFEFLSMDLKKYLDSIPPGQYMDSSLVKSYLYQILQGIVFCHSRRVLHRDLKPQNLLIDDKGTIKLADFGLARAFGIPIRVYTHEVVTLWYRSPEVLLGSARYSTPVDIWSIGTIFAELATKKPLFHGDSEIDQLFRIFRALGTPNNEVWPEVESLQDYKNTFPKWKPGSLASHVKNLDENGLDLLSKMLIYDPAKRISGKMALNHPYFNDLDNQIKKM
Chain of CDK1/CCNB1 (P14635 whole entry partner): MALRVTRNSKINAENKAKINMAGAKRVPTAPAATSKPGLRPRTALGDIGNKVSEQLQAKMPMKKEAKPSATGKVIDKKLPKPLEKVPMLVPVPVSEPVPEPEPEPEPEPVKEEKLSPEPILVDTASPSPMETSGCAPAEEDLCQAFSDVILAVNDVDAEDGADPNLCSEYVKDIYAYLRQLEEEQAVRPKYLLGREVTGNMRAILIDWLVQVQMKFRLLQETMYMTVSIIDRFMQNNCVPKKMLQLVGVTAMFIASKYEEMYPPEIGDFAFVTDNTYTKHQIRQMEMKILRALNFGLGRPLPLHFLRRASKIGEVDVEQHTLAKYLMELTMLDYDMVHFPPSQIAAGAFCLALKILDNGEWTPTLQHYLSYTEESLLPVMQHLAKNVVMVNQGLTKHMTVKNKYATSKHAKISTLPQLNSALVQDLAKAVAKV
Summary of the method: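 Compounds, titrated 11 points in half-log steps typically from 10 μM, were incubated with enzyme for 20 min before ATP (1 mM) and ULight-labelled eIF4E-binding protein 1 peptide (50 nM) started a 60-min reaction at 23 °C. Phosphopeptide was detected by europium-antibody TR-FRET and IC50 values were derived.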

[3] = molecular target: CDK4/CCND3 (Homo sapiens, UniProt P11802); assay: CDK4 homogeneous time-resolved fluorescence (HTRF) kinase assay; details: CDK4/CCND
Chain of CDK4/CCND3 (P11802 whole entry): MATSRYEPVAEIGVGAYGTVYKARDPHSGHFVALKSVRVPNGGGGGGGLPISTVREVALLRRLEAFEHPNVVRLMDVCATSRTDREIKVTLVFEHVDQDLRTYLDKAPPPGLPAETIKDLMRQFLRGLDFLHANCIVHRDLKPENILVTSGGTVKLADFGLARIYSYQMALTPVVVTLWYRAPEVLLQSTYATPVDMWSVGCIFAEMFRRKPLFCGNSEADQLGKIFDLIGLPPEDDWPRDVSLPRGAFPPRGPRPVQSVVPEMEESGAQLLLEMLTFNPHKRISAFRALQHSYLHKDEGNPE
Chain of CDK4/CCND3 (P30281 whole entry partner): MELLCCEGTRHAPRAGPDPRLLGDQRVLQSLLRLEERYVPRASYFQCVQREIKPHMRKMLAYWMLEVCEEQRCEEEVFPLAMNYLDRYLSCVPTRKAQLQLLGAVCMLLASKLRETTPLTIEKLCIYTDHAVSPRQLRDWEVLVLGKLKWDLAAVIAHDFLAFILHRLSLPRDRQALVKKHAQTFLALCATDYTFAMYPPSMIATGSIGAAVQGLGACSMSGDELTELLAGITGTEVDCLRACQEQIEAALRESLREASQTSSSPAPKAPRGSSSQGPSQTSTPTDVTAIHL
Summary of the method: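 Steps: compound plus 1.5 nM CDK4/CCND3, 20 min, 23 °C; add 1 mM ATP and 50 nM ULight-4E-BP1 (Thr37/46) peptide, 60 min; stop with 10 mM EDTA; add 2 nM Eu anti-phospho antibody, 60 min; read 665 nm. IC50 from 11-point half-log series starting 10 μM.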

[4] = molecular target: CDK6/CCND1 (Homo sapiens, UniProt Q00534); assay: CDK6 homogeneous time-resolved fluorescence (HTRF) kinase assay; details: CDK6/CCND
Chain of CDK6/CCND1 (Q00534 whole entry): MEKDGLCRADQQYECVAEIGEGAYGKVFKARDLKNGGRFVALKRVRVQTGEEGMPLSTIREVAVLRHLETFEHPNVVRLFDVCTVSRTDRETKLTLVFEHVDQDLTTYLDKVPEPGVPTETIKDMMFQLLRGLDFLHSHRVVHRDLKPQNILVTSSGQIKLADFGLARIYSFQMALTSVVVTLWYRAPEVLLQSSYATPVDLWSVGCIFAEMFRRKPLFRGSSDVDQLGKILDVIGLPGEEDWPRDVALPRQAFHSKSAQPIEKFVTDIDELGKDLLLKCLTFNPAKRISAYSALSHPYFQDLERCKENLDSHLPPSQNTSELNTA
Chain of CDK6/CCND1 (P24385 whole entry partner): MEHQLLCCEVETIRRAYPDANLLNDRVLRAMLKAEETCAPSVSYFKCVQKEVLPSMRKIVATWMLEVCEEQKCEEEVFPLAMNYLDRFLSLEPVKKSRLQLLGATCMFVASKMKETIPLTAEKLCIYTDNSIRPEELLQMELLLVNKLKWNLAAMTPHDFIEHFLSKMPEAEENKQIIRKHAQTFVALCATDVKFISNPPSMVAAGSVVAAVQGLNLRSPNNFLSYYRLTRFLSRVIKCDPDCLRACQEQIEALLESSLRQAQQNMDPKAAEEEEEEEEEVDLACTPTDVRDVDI
Summary of the method: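 Enzyme pre-incubated 20 min at 23 °C with compound, then reacted 60 min at 23 °C with 1 mM ATP and 50 nM ULight-4E-BP1 (Thr37/46) peptide; 1 nM enzyme, 1% DMSO. EDTA-stopped, Eu-anti-phospho antibody TR-FRET read (665 nm or 665/615 ratio); 11-point half-log titration from 10 μM gave IC50.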

[5] = x = IC50 25-250 nM, read-out: CDK2/CCNE IC50 (25-250 nM)
[6] = x = IC50 >250 nM, read-out: CDK1/CCNB IC50 (>250 nM column)
[7] = x = IC50 >250 nM, read-out: CDK4/CCND IC50 (>250 nM column)
[8] = x = IC50 >250 nM, read-out: CDK6/CCND IC50 (>250 nM column)
[9] = >250 nM marked x, read-out: CDK1/CCNB IC50 >250 nM
[10] = 25-250 nM, read-out: CDK2/CCNE IC50, 25-250 nM
[11] = >250 nM, read-out: CDK1/CCNB IC50 >250 nM
[12] = >250 nM, read-out: CDK4/CCND IC50, >250 nM
[13] = >250 nM, 1 mM ATP, read-out: CDK6/CCND IC50, >250 nM

Row | SMILES | IC50 [1, 5] [nM] | IC50 [2, 6] [nM] | IC50 [3, 7] [nM] | IC50 [4, 8] [nM] | further results
1 | CN=S(C)(=O)c1ccc(Nc2cc3c(-c4ccc5c(cnn5CC(O)(C(F)(F)F)C(F)(F)F)c4C)nccc3cn2)cc1 (racemic) [Ex 470, methyl(4-((5-(4-methyl-1-(3,3,3-trifluoro-2-hydroxy-2-(trifluoromethyl)propyl)-1H-indazol-5-yl)-2,6-naphthyridin-3-yl)amino)phenyl)(methylimino)-l6-sulfanone] | 25 to 250 | > 250 | > 250 | > 250 | –
2 | CS(=O)(=O)N1CCC(Nc2cc3c(-c4ccc(CO)cc4)nccc3cn2)CC1 [Ex 78, (4-(7-((1-(methylsulfonyl)piperidin-4-yl)amino)-2,6-naphthyridin-1-yl)phenyl)methanol] | – | – | – | – | IC50 ([1]; <25 nM, read-out: CDK2/CCNE IC50 <25 nM): < 25 nM; IC50 [2, 9]: > 250 nM; IC50 ([3]; 25-250 nM marked x, read-out: CDK4/CCND IC50 25-250 nM): 25 to 250 nM; IC50 ([4]; <25 nM, read-out: CDK6/CCND IC50 <25 nM): < 25 nM
3 | CS(=O)(=O)c1ccc(Nc2cc3c(C#Cc4ccnc(C(F)F)c4)nccc3cn2)cc1 [Ex 529, 5-((2-(difluoromethyl)pyridin-4-yl)ethynyl)-N-(4-(methylsulfonyl)phenyl)-2,6-naphthyridin-3-amine] | 25 to 250 | > 250 | > 250 | > 250 | –
4 | O=c1ccc(C#Cc2nccc3cnc(Nc4cnc(O)c(N5CCN(CCO)CC5)c4)cc23)n[nH]1 [Ex 866, 6-((7-((6-hydroxy-5-(4-(2-hydroxyethyl)piperazin-1-yl)pyridin-3-yl)amino)-2,6-naphthyridin-1-yl)ethynyl)pyridazin-3(2H)-one] | – | – | – | – | IC50 [1, 10]: 25 to 250 nM; IC50 [2, 11]: > 250 nM; IC50 [3, 12]: > 250 nM; IC50 [4, 13]: > 250 nM
5 | Cc1c(-c2nccc3cnc(Nc4ccc(S(C)(=O)=O)c(N5CCN(CCO)CC5)c4)cc23)ccc2c1cnn2CC(C)(C)O [Ex 919, 1-(5-(7-((3-(4-(2-hydroxyethyl)piperazin-1-yl)-4-(methylsulfonyl)phenyl)amino)-2,6-naphthyridin-1-yl)-4-methyl-1H-indazol-1-yl)-2-methylpropan-2-ol] | – | – | – | – | IC50 [1, 10]: 25 to 250 nM; IC50 [2, 11]: > 250 nM; IC50 [3, 12]: > 250 nM; IC50 [4, 13]: > 250 nM
6 | CCC1(CC)C(=O)Nc2cc(C#Cc3nccc4cnc(Nc5ccc(S(=O)(=O)C(C)C)cc5OC)cc34)ccc21 [Ex 338, 3,3-diethyl-6-((7-((4-(isopropylsulfonyl)-2-methoxyphenyl)amino)-2,6-naphthyridin-1-yl)ethynyl)indolin-2-one] | – | – | – | – | IC50 ([1]; 25-250 nM marked x, read-out: CDK2/CCNE IC50 25-250 nM): 25 to 250 nM; IC50 [2, 9]: > 250 nM; IC50 ([3]; >250 nM marked x, read-out: CDK4/CCND IC50 >250 nM): > 250 nM; IC50 ([4]; >250 nM marked x, read-out: CDK6/CCND IC50 >250 nM): > 250 nM

Continued, in another order:

Row | IC50 [1, 5] [nM] | IC50 [2, 6] [nM] | IC50 [3, 7] [nM] | IC50 [4, 8] [nM] | SMILES | further results
7 | 25 to 250 | > 250 | > 250 | > 250 | COc1ncccc1C#Cc1nccc2cnc(Nc3ccc(S(C)(=O)=O)cc3)cc12 [Ex 579, 5-((2-methoxypyridin-3-yl)ethynyl)-N-(4-(methylsulfonyl)phenyl)-2,6-naphthyridin-3-amine] | –
8 | 25 to 250 | > 250 | > 250 | > 250 | CC(C)(O)c1cc2ccc(C#Cc3nccc4cnc(Nc5ccc(S(C)(=O)=O)cc5)cc34)cc2[nH]1 [Example 590, 2-(6-((7-((4-(methylsulfonyl)phenyl)amino)-2,6-naphthyridin-1-yl)ethynyl)-1H-indol-2-yl)propan-2-ol] | –
9 | – | > 250 | > 250 | > 250 | CC1(C)C(=O)Nc2cc(C#Cc3nccc4cnc(Nc5ccc(S(C)(=O)=O)cc5)cc34)cnc21 [Example 436, 3,3-dimethyl-6-((7-((4-(methylsulfonyl)phenyl)amino)-2,6-naphthyridin-1-yl)ethynyl)-1,3-dihydro-2H-pyrrolo[3,2-b]pyridin-2-one] | IC50 ([1]; x = IC50 <25 nM, read-out: CDK2/CCNE IC50 (<25 nM)): < 25 nM
